Source: US3981999A, “Fish disease treatment” (Dainippon Pharmaceutical Co., Ltd., priority 1973, dated 1976)

Assays:
[1] = test system: Aeromonas liquefacieus Y-62; assay: Oral effect against Aeromonas infection in goldfish; format: in vivo; details: for Percent survival: 5 days; for Number of surviving fish after 1 day / Number of surviving fish after 2 days / Number of surviving fish after 3 days / Number of surviving fish after 4 days / Number of surviving fish after 5 days: day 0: PA 10, others 5 fish
Experimental: Goldfish each weighing about 6 - 7 g were given a fish food containing each of the test compounds. After 30 minutes, the fish were infected intramuscularly with Aeromonas liquefacieus Y-62 (about 10^7 germs/fish) under ether anesthesia. […] In the same manner, the control group was given the same fish food without the test compound.

[2] = test system: eels; assay: Oral toxicity in eels; format: in vivo, eels (Anguilla Japonica); details: oral 2000 mg/kg, 7 days, 10 eels per group, 27° to 27.5°C
Experimental: A suspension of PA in 0.2% carboxymethylcellulose was orally given to groups each consisting of 10 eels (Anguilla Japonica, about 160 g) and observation was made for the following 7 days. The temperature of the water was kept at 27° to 27.5°C.

[3] = test system: Aeromonas liquefaciens Y-62; assay: Oral administration to eels starting the day before Aeromonas infection; format: in vivo, eels (Anguilla Japonica); details: oral 1.56 mg/kg/day for 2 days starting the day before infection; seventh day
Experimental: Groups of eels (Anguilla Japonica, average weight 100 g) (each group consisting of 50 fish) were infected intramuscularly with Aeromonas liquefaciens Y-62 (10^9 germs/fish). For 2 days starting at the day before infection, a suspension consisting of a diet containing PA was orally administered to the eels using a catheter at a dose of 1.56 mg/kg/day. On the seventh day after the infection, the eels were observed.
During the experimental period, the temperature of the water was maintained at 25° to 26°C.

[4] = 0.03% in diet (PA 2.5, AT-1493 2.5, AT-1557 2.2 mg/kg)
[5] = 0.1% in diet (PA 6.1, AT-1493 7.5, AT-1557 7.6, AT-1475 7.5 mg/kg)

## CCn1cc(C(=O)O)c(=O)c2cnc(N3CCCC3)nc21 [PA, 5,8-dihydro-2-pyrrolidino-8-ethyl-5-oxopyrido[2,3-d]pyrimidine-6-carboxylic acid]
[1]; [4]
  Percent survival: 60%
  Number of surviving fish after 1 day: 10
  Number of surviving fish after 2 days: 9
  Number of surviving fish after 3 days: 7
  Number of surviving fish after 4 days: 6
  Number of surviving fish after 5 days: 6
[1]; [5]
  Percent survival: 100%
  Number of surviving fish after 1 day: 10
  Number of surviving fish after 2 days: 10
  Number of surviving fish after 3 days: 10
  Number of surviving fish after 4 days: 10
  Number of surviving fish after 5 days: 10
[2]
  survival and external appearance: All eels survived without abnormality of their external appearance
[3]
  eels survived: 80%
